± gives the expanded uncertainty stated by the source.
Details: Liquid, Closed cell (Static) method

FC(F)(F)C(F)(F)C(F)(F)C(F)(F)C(F)(F)C(F)(F)C(F)(F)C(F)(F)F [octadecafluorooctane]
vapor or sublimation pressure (308.45 K): 6.1 ± 12 kPa
vapor or sublimation pressure (318.42 K): 10.1 ± 12 kPa
vapor or sublimation pressure (323.48 K): 12.8 ± 12 kPa
vapor or sublimation pressure (328.48 K): 16 ± 12 kPa
vapor or sublimation pressure (338.43 K): 24.3 ± 12 kPa

Reference: the NIST ThermoML archive (doi:10.1016/j.fluid.2013.01.017)
